Cl.N=C(N)N
solubility (mole fraction)
Conditions	278.15 K	283.15 K	288.15 K	293.15 K	298.15 K	303.15 K	308.15 K	313.15 K	318.15 K	323.15 K
in 2-butoxyethanol	0.104	0.111	0.126	0.138	0.153	0.169	0.185	0.201	0.216	0.236
in 2-ethoxyethanol	0.252	0.263	0.275	0.284	0.296	0.308	0.321	0.334	0.349	0.362
in 2-methoxyethanol	0.293	0.302	0.312	0.323	0.333	0.345	0.355	0.368	0.381	0.394
in 2-propoxyethanol	0.158	0.172	0.185	0.2	0.216	0.232	0.247	0.263	0.28	0.298
in DMAc	0.265	0.283	0.302	0.321	0.34	0.358	0.376	0.394	0.415	0.434
in DMF	0.326	0.345	0.368	0.384	0.402	0.42	0.441	0.456	0.476	0.495
in NMP	0.116	0.128	0.142	0.154	0.17	0.185	0.201	0.216	0.236	0.253
in ethanol	0.0832	0.0916	0.1	0.108	0.117	0.128	0.139	0.152	0.163	0.172
in isopropanol	0.0552	0.0623	0.0699	0.0803	0.0886	0.0991	0.11	0.122	0.135	0.149
in methanol	0.156	0.169	0.179	0.191	0.202	0.214	0.227	0.239	0.253	0.265
in n-propanol	0.0373	0.0447	0.0493	0.0571	0.066	0.0733	0.083	0.0939	0.103	0.115
